Data reported in patent US12351571B2, “Substituted quinoxaline compounds as inhibitors of FGFR tyrosine kinases” (ARRAY BIOPHARMA INC., priority 2018, dated 2025).

What was measured:
[1] = biological target: recombinant human FGFR1 catalytic domain (Homo sapiens (Human), UniProt P11362); test: FGFR Enzyme Activity Assay (LanthaScreen TR-FRET), FGFR1; format: biochemical; details: 15 μM ATP, 20 minutes incubation; read-out: FGFR1 Enz FRET IC50
Description: FGFR1 kinase activity was measured by the Invitrogen LanthaScreen™ Assay technology which directly measures the amount of substrate phosphorylation by Time-resolved fluorescence energy transfer (TR-FRET) using a flourescently-labeled peptide and Europium-labeled antibody. Briefly, 200 pM His-tagged recombinant human FGFR1 catalytic domain (amino acids 308-731) (Life Technologies Cat. No. PR4660A) was incubated with 100 nM Alexa Fluor® 647-Poly-GT Peptide Substrate (Life Technologies Cat. No. PV5836) and 15 μM ATP along with test compound in a buffer consisting of 250 mM HEPES, 25 mM MgCl2, 0.05% TritonX-100, pH 7.5, and 2% DMSO. Compounds were typically prepared in a threefold serial dilution in DMSO and added to the assay to give the appropriate final concentration. After a 20 minutes incubation at 22° C., an equal volume of 2 nM LanthaScreen® Eu-PY20 Antibody (Life Technologies Cat. No. PV5691) and 10 mM EDTA was added to quench the kinase reaction and start the detection reaction. After an additional 60 minute incubation at 22° C., the reaction was measured using a PerkinElmer EnVision multimode plate reader via TR-FRET dual wavelength detection, and the percent of control (POC) calculated using a ratiometric emission factor. 100 POC was determined using no test compounds and 0 POC was determined using no enzyme. The POC values were fit to a 4-parameter logistic curve as a function of the concentration of the compound, and the IC50 value is the point where the curve crosses 50 POC.

[2] = biological target: recombinant human FGFR2 cytoplasmic domain (Homo sapiens (Human), UniProt P21802); test: FGFR Enzyme Activity Assay (LanthaScreen TR-FRET), FGFR2; format: biochemical; details: 15 μM ATP, 20 minute incubation; read-out: FGFR2 Enz FRET IC50
Description: FGFR2 kinase activity was measured by the Invitrogen LanthaScreen™ Assay technology which directly measures the amount of substrate phosphorylation by TR-FRET using a flourescently-labeled peptide and Europium-labeled antibody. Briefly, 200 pM His-tagged recombinant human FGFR2 cytoplasmic domain (amino acids 403-822) (Life Technologies Cat. No. PR5332A) was incubated with 100 nM Alexa Fluor® 647-Poly-GT Peptide Substrate (Life Technologies Cat. No. PV5836) and 15 μM ATP along with test compound in a buffer consisting of 250 mM HEPES, 25 mM MgCl2, 0.05% TritonX-100, pH 7.5, and 2% DMSO. Compounds were typically prepared in a threefold serial dilution in DMSO and added to the assay to give the appropriate final concentration. After a 20 minute incubation at 22° C., an equal volume of 2 nM LanthaScreen® Eu-PY20 Antibody (Life Technologies Cat. No. PV5691) and 10 mM EDTA were added to quench the kinase reaction and start the detection reaction. After an additional 60 minute incubation at 22° C., the reaction was measured using a PerkinElmer EnVision multimode plate reader via TR-FRET dual wavelength detection, and the percent of control (POC) calculated using a ratiometric emission factor. 100 POC was determined using no test compounds and 0 POC was determined using no enzyme. The POC values were fit to a 4-parameter logistic curve as a function of the concentration of the compound, and the IC50 value is the point where the curve crosses 50 POC.

[3] = biological target: phosphorylated FGFR3 (Homo sapiens (Human), UniProt P22607); test: FGFR Enzyme Binding Assay (HTRF tracer displacement), FGFR3; details: 5 nM phosphorylated FGFR3, 60 minute incubation at 22° C.; read-out: FGFR3 Enz Binding IC50
Description: (§1) The potency of compounds inhibiting human isoforms of FGFR kinase was determined using Life Technologies' Homogeneous Time Resolved Fluorescence (HTRF)-based binding assay technology. An incubation was conducted with either 5 nM dephosphorylated FGFR1 (Array Biopharma, p1702; SEQ ID NO: 1, amino acids 458 to 765, dephosphorylated by co-expression with PTP1b (protein tyrosine phosphatase 1B)), 5 nM dephosphorylated FGFR2 (Life Technologies, Cat. No. PV4106 that had been dephosphorylated with Lambda protein phosphatase (New England Biolabs, cat #P0753)) or 5 nM phosphorylated FGFR3 (Array Biopharma, p1836; SEQ ID NO: 5, amino acids 449 to 759), 50 nM Kinase Tracer 236 (Life Technologies Cat. No. PR9078A), 2 nM Biotin-anti-6HIS (Life Technologies Cat. No. PV6090) and 2 nM Europium-Streptavidin (Life Technologies Cat. No. PV6025) along with test compound in a buffer consisting of 50 mM HEPES ((4-(2-hydroxyethyl)-1-piperazineethanesulfonic acid, pH 7.5), 5 mM MgCl2, 0.005% Triton X-100, 1 mM DTT, 1 mM NaVO4 and 2% DMSO in a final volume of 12 μL Compounds were typically prepared as a 3-fold or 4-fold serial dilution in DMSO and added to the assay to give the appropriate final concentration. After a 60 minute incubation at 22° C., the extent of tracer displacement was determined using a PerkinElmer EnVision multimode plate reader via HTRF dual wavelength detection, and the percent of control (POC) was calculated using a ratiometric emission factor. One hundred POC was determined using no test compound, and 0 POC was determined in the presence of 1 μM of an appropriate control inhibitor. A 4-parameter logistic curve was fit to the POC values as a function of the concentration of compound, and the IC50 value was the point where the best-fit curve crossed 50 POC.

[4] = biological target: dephosphorylated FGFR1 (Homo sapiens (Human), UniProt P11362); test: FGFR Enzyme Binding Assay (HTRF tracer displacement), FGFR1; details: 5 nM dephosphorylated FGFR1, 60 minute incubation at 22° C.; read-out: FGFR1 Enz Binding IC50
Description: as §1

Chain of phosphorylated FGFR3 (P22607 449-759): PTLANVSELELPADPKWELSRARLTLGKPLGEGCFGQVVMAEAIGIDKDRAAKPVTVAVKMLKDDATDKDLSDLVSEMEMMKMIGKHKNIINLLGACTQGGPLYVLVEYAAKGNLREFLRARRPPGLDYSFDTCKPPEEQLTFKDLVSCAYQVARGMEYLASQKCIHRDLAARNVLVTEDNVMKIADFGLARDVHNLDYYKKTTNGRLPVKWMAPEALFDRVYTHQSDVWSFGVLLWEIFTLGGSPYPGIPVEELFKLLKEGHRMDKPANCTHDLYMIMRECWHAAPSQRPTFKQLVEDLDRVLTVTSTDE
Chain of dephosphorylated FGFR1 (P11362 458-765): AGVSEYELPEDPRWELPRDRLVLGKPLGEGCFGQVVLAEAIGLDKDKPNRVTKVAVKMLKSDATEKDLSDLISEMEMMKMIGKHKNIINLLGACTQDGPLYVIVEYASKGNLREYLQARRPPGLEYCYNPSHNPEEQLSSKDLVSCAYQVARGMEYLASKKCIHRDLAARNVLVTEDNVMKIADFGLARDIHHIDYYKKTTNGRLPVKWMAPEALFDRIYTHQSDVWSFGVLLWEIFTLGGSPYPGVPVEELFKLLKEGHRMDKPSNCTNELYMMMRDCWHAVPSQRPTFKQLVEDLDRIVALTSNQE
Chain of recombinant human FGFR1 catalytic domain (P11362 other isoform, or with tags, fused parts or gaps): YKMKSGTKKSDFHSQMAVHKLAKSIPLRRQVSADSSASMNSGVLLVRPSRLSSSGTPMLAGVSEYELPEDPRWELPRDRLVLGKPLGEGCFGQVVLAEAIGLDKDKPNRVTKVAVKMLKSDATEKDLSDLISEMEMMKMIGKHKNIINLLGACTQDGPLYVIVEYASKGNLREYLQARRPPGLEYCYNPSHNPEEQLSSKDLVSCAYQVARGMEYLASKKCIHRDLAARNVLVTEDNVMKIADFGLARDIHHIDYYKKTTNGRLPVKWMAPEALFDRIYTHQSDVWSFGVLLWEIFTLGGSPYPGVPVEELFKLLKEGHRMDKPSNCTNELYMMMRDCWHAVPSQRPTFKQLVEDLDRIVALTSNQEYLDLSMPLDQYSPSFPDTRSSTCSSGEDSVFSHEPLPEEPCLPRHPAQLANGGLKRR
Chain of recombinant human FGFR2 cytoplasmic domain (P21802 402-821): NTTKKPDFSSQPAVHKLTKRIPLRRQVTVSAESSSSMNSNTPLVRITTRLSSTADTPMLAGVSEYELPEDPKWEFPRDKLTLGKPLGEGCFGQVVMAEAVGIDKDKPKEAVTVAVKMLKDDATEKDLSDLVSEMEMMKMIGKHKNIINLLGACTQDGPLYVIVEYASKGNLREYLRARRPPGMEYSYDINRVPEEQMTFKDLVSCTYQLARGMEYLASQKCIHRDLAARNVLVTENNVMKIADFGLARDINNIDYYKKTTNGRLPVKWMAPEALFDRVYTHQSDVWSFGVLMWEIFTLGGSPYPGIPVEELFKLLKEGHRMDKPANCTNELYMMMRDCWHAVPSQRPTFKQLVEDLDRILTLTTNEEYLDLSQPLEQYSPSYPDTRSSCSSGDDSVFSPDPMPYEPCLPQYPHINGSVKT

| IC50 [1] [nM] | IC50 [2] [nM] | IC50 [3] [nM] | IC50 [4] [nM] | SMILES |
| --- | --- | --- | --- | --- |
| 376 | 118 | 5 | 102 | COc1cc(Nc2ccc3ncc(-c4cnn(C5CCN(C(=O)C6(F)CN(C(=O)/C=C/CN(C)C)C6)CC5)c4C)nc3c2)cc(OC)c1 [Example 17, (E)-1-(3-(4-(4-(7-((3,5-dimethoxyphenyl)amino)-quinoxalin-2-yl)-5-methyl-1H-pyrazol-1-yl)piperi-dine-1-carbonyl)-3-fluoroazetidin-1-yl)-4-(dimethylamino)but-2-en-1-one] |
| 51 | 12 | 5 | 26 | C=CC(=O)N1CCC(C(=O)N2CCC(n3cc(-c4cnc5ccc(Nc6cc(OC)cc(OC)c6)cc5n4)cn3)CC2)CC1 [Example 3, 1-(4-(4-(4-(7-((3,5-dimethoxyphenyl)amino)-quinoxalin-2-yl)-1H-pyrazol-1-yl)piperidine-1-carbonyl)piperidin-1-yl)prop-2-en-1-one] |
| 229 | 211 | 9 | 53 | C=CC(=O)N1CC(OC)(C(=O)N2CCC(n3cc(-c4cnc5ccc(Nc6cc(OC)cc(OC)c6)cc5n4)cn3)CC2)C1 [Example 24, 1-(3-(4-(4-(7-((3,5-dimethoxyphenyl)amino)-quinoxalin-2-yl)-1H-pyrazol-1-yl)piperidine-1-carbonyl)-3-methoxy-azetidin-1-yl)prop-2-en-1-one] |
| 216 | 124 | 9 | 132 | COc1cc(Nc2ccc3ncc(-c4ccc(N5CCN(C(=O)C6CN(C(=O)/C=C/CN(C)C)C6)CC5)nc4)nc3c2)cc(OC)c1 [Example 6, (E)-1-(3-(4-(5-(7-((3,5-dimethoxyphenyl)amino)-quinoxalin-2-yl)pyridin-2-yl)piperazine-1-carbonyl)azetidin-1-yl)-4-(dimethylamino)but-2-en-1-one] |
